Activity calls are given as the source filed them. The calls are words filed in the database; no cut-off is given here.
Key:
Mus musculus [1] = experiment: Antidiabetic activity in C57BL/6N mouse assessed as reduction in blood glucose AUC at 3 mg/kg, po administered for 60 mins followed by dextrose challenge by OGTT; assay type: functional
Mus musculus [2] = experiment: Antidiabetic activity in C57BL/6N mouse assessed as reduction in blood glucose AUC at 1 mg/kg, po administered for 60 mins followed by dextrose challenge by OGTT; assay type: functional; parameters: scale not given: the % may be the effect or the level left
[3] = Plasma concentration in C57BL/6N mouse at 1 mg/kg, po administered for 60 mins followed by dextrose challenge during OGTT method; assay type: ADME, organism-based
Mus musculus [4] = experiment: Antidiabetic activity in po dosed C57BL/6N mouse assessed as reduction in blood glucose AUC after 60 mins followed by dextrose challenge by OGTT; assay type: functional, organism-based
[5] = Plasma concentration in C57BL/6N mouse at 10 mg/kg, po administered for 60 mins followed by dextrose challenge during OGTT method; assay type: ADME, organism-based
Mus musculus [6] = experiment: Antidiabetic activity in C57BL/6N mouse assessed as reduction in blood glucose AUC at 10 mg/kg, po administered for 60 mins followed by dextrose challenge by OGTT; assay type: functional; parameters: scale not given: the % may be the effect or the level left
[7] = Plasma concentration in C57BL/6N mouse at 3 mg/kg, po administered for 60 mins followed by dextrose challenge during OGTT method; assay type: ADME, organism-based
Mus musculus [8] = experiment: Ex vivo inhibition of DPP4 in C57BL/6N mouse blood at 1 to 10 mg/kg, po measured after 24 hrs; assay type: functional, organism-based
Mus musculus [9] = experiment: Ex vivo inhibition of DPP4 in C57BL/6N mouse blood at 3 to 10 mg/kg, po measured after 2 to 6 hrs; assay type: functional
[10] = Intrinsic clearance in dog hepatocytes assessed per 10^6 cells at 1 uM after 30 to 120 mins by LC-MS/MS analysis; assay type: ADME, cell-based, Canis lupus familiaris, Hepatocyte; conditions: read-out: CLH
[11] = Intrinsic clearance in rat hepatocytes assessed per 10^6 cells at 1 uM after 30 to 120 mins by LC-MS/MS analysis; assay type: ADME, cell-based, Hepatocyte; conditions: read-out: CLH
[12] = Intrinsic clearance in human hepatocytes assessed per 10^6 cells at 1 uM after 30 to 120 mins by LC-MS/MS analysis; assay type: ADME, cell-based, Hepatocyte; conditions: read-out: CLH
[13] = Intrinsic clearance in cynomolgus monkey hepatocytes assessed per 10^6 cells at 1 uM after 30 to 120 mins by LC-MS/MS analysis; assay type: ADME, cell-based, Macaca fascicularis, Hepatocyte; conditions: read-out: CLH
Mus musculus [14] = experiment: Antidiabetic activity in C57BL/6N mouse assessed as reduction in blood glucose AUC at 0.3 mg/kg, po administered for 60 mins followed by dextrose challenge by OGTT; assay type: functional; parameters: scale not given: the % may be the effect or the level left
[15] = Plasma concentration in C57BL/6N mouse at 0.3 mg/kg, po administered for 60 mins followed by dextrose challenge during OGTT method; assay type: ADME, organism-based

Row | Compound | Activity (Mus musculus [1]) | Activity (Mus musculus [2]) | concentration at 1 h [3] | Activity (Mus musculus [4]) | concentration at 1 h [5] | Activity (Mus musculus [6]) | concentration at 1 h [7] | inhibition (Mus musculus [8]) | inhibition (INH) (Mus musculus [9]) | hepatocyte CLint at 1 µM [10] | hepatocyte CLint at 1 µM [11] | hepatocyte CLint at 1 µM [12] | hepatocyte CLint at 1 µM [13] | Activity (Mus musculus [14]) | concentration at 1 h [15]
1 | Cn1c(=O)cc(N2CCC[C@@H](N)C2)n(Cc2ccccc2C#N)c1=O | Active |  |  |  |  |  |  |  |  |  |  |  |  |  | 
2 | CN1C(=O)Cn2c1nc1nc(N3CCC[C@@H](N)C3)n(Cc3cc(F)ccc3C#N)c1c2=O | 64% | 52% | 10 nM | Dose-dependent effect | 235 nM | 63% | 70 nM | inactive | >80% | < 1 µL/min/1e6 cells | 0.3 µL/min/1e6 cells | 0.1 µL/min/1e6 cells | < 1 µL/min/1e6 cells | 38% | 2 nM
